Experimental data taken from the NIST ThermoML archive (doi:10.1021/je800251v).
Numbers after ± are expanded uncertainties.

Conditions: Liquid

CCCCC(=O)OCC [ethyl pentanoate]
Conditions	mass density [kg/m3]
298.15 K, 100 kPa	870.7 ± 0.8
298.15 K, 1000 kPa	871.5 ± 0.9
298.15 K, 2000 kPa	872.4 ± 0.9
298.15 K, 2780 kPa	873 ± 0.9
298.15 K, 3000 kPa	873.2 ± 0.9
298.15 K, 5000 kPa	875.1 ± 1
298.15 K, 10000 kPa	879.4 ± 1.2
298.15 K, 15000 kPa	883.4 ± 1.3
298.15 K, 20000 kPa	887.3 ± 1.5
298.15 K, 25000 kPa	891 ± 1.6
298.15 K, 30000 kPa	894.6 ± 1.7
298.15 K, 35000 kPa	898.1 ± 1.8
303.15 K, 100 kPa	865.5 ± 0.8
303.15 K, 1000 kPa	866.4 ± 0.9
303.15 K, 2000 kPa	867.4 ± 0.9
303.15 K, 2780 kPa	868.1 ± 0.9
303.15 K, 3000 kPa	868.3 ± 0.9
303.15 K, 5000 kPa	870.1 ± 1
303.15 K, 10000 kPa	874.5 ± 1.2
303.15 K, 15000 kPa	878.7 ± 1.3
303.15 K, 20000 kPa	882.6 ± 1.5
303.15 K, 25000 kPa	886.5 ± 1.6
303.15 K, 30000 kPa	890.2 ± 1.8
303.15 K, 35000 kPa	893.8 ± 1.9
308.15 K, 100 kPa	860.3 ± 0.9
308.15 K, 1000 kPa	861.2 ± 0.9
308.15 K, 2000 kPa	862.1 ± 0.9
308.15 K, 2780 kPa	862.9 ± 1
308.15 K, 3000 kPa	863.1 ± 1
308.15 K, 5000 kPa	865 ± 1
308.15 K, 10000 kPa	869.5 ± 1.2
308.15 K, 15000 kPa	873.8 ± 1.4
308.15 K, 20000 kPa	877.8 ± 1.5
308.15 K, 25000 kPa	881.8 ± 1.7
308.15 K, 30000 kPa	885.6 ± 1.8
308.15 K, 35000 kPa	889.2 ± 1.9
313.15 K, 100 kPa	855 ± 0.9
313.15 K, 1000 kPa	855.9 ± 0.9
313.15 K, 2000 kPa	856.9 ± 0.9
313.15 K, 2780 kPa	857.7 ± 1
313.15 K, 3000 kPa	857.9 ± 1
313.15 K, 5000 kPa	859.9 ± 1.1
313.15 K, 10000 kPa	864.5 ± 1.2
313.15 K, 15000 kPa	868.9 ± 1.4
313.15 K, 20000 kPa	873 ± 1.6
313.15 K, 25000 kPa	877 ± 1.7
313.15 K, 30000 kPa	880.9 ± 1.9
313.15 K, 35000 kPa	884.6 ± 2
318.15 K, 100 kPa	849.8 ± 0.9
318.15 K, 1000 kPa	850.6 ± 0.9
318.15 K, 2000 kPa	851.7 ± 1
318.15 K, 2780 kPa	852.4 ± 1
318.15 K, 3000 kPa	852.7 ± 1
318.15 K, 5000 kPa	854.6 ± 1.1
318.15 K, 10000 kPa	859.4 ± 1.3
318.15 K, 15000 kPa	863.9 ± 1.5
318.15 K, 20000 kPa	868.2 ± 1.6
318.15 K, 25000 kPa	872.3 ± 1.8
318.15 K, 30000 kPa	876.3 ± 1.9
318.15 K, 35000 kPa	880.1 ± 2.1
323.15 K, 100 kPa	844.4 ± 0.9
323.15 K, 1000 kPa	845.3 ± 0.9
323.15 K, 2000 kPa	846.4 ± 1
323.15 K, 2780 kPa	847.2 ± 1
323.15 K, 3000 kPa	847.4 ± 1
323.15 K, 5000 kPa	849.4 ± 1.1
323.15 K, 10000 kPa	854.3 ± 1.3
323.15 K, 15000 kPa	859 ± 1.5
323.15 K, 20000 kPa	863.4 ± 1.7
323.15 K, 25000 kPa	867.6 ± 1.8
323.15 K, 30000 kPa	871.7 ± 2
323.15 K, 35000 kPa	875.5 ± 2.1
328.15 K, 100 kPa	839.1 ± 0.9
328.15 K, 1000 kPa	840 ± 1
328.15 K, 2000 kPa	841.1 ± 1
328.15 K, 2780 kPa	842 ± 1
328.15 K, 3000 kPa	842.3 ± 1
328.15 K, 5000 kPa	844.4 ± 1.1
328.15 K, 10000 kPa	849.4 ± 1.3
328.15 K, 15000 kPa	854.2 ± 1.5
328.15 K, 20000 kPa	858.7 ± 1.7
328.15 K, 25000 kPa	863 ± 1.9
328.15 K, 30000 kPa	867.1 ± 2
328.15 K, 35000 kPa	871.1 ± 2.2
333.15 K, 100 kPa	833.7 ± 0.9
333.15 K, 1000 kPa	834.7 ± 1
333.15 K, 2000 kPa	836 ± 1
333.15 K, 2780 kPa	836.9 ± 1
333.15 K, 3000 kPa	837.1 ± 1.1
333.15 K, 5000 kPa	839.3 ± 1.1
333.15 K, 10000 kPa	844.5 ± 1.4
333.15 K, 15000 kPa	849.5 ± 1.6
333.15 K, 20000 kPa	854.1 ± 1.7
333.15 K, 25000 kPa	858.6 ± 1.9
333.15 K, 30000 kPa	862.9 ± 2.1
333.15 K, 35000 kPa	867 ± 2.2
338.15 K, 100 kPa	828.4 ± 0.9
338.15 K, 1000 kPa	829.5 ± 1
338.15 K, 2000 kPa	830.7 ± 1
338.15 K, 2780 kPa	831.5 ± 1.1
338.15 K, 3000 kPa	831.8 ± 1.1
338.15 K, 5000 kPa	834 ± 1.2
338.15 K, 10000 kPa	839.4 ± 1.4
338.15 K, 15000 kPa	844.5 ± 1.6
338.15 K, 20000 kPa	849.3 ± 1.8
338.15 K, 25000 kPa	853.9 ± 2
338.15 K, 30000 kPa	858.2 ± 2.1
338.15 K, 35000 kPa	862.4 ± 2.3
343.15 K, 100 kPa	823 ± 1
343.15 K, 1000 kPa	824.1 ± 1
343.15 K, 2000 kPa	825.3 ± 1
343.15 K, 2780 kPa	826.2 ± 1.1
343.15 K, 3000 kPa	826.5 ± 1.1
343.15 K, 5000 kPa	828.8 ± 1.2
343.15 K, 10000 kPa	834.4 ± 1.4
343.15 K, 15000 kPa	839.6 ± 1.6
343.15 K, 20000 kPa	844.5 ± 1.8
343.15 K, 25000 kPa	849.2 ± 2
343.15 K, 30000 kPa	853.7 ± 2.2
343.15 K, 35000 kPa	858 ± 2.3
348.15 K, 100 kPa	817.7 ± 1
348.15 K, 1000 kPa	818.7 ± 1
348.15 K, 2000 kPa	820 ± 1.1
348.15 K, 2780 kPa	821 ± 1.1
348.15 K, 3000 kPa	821.3 ± 1.1
348.15 K, 5000 kPa	823.7 ± 1.2
348.15 K, 10000 kPa	829.4 ± 1.4
348.15 K, 15000 kPa	834.8 ± 1.7
348.15 K, 20000 kPa	839.9 ± 1.9
348.15 K, 25000 kPa	844.7 ± 2.1
348.15 K, 30000 kPa	849.3 ± 2.2
348.15 K, 35000 kPa	853.6 ± 2.4
353.15 K, 100 kPa	812.2 ± 1
353.15 K, 1000 kPa	813.3 ± 1
353.15 K, 2000 kPa	814.6 ± 1.1
353.15 K, 2780 kPa	815.6 ± 1.1
353.15 K, 3000 kPa	815.9 ± 1.1
353.15 K, 5000 kPa	818.4 ± 1.2
353.15 K, 10000 kPa	824.3 ± 1.5
353.15 K, 15000 kPa	829.9 ± 1.7
353.15 K, 20000 kPa	835.1 ± 1.9
353.15 K, 25000 kPa	840 ± 2.1
353.15 K, 30000 kPa	844.7 ± 2.3
353.15 K, 35000 kPa	849.1 ± 2.5
363.15 K, 100 kPa	801.2 ± 1
363.15 K, 1000 kPa	802.5 ± 1.1
363.15 K, 2000 kPa	803.9 ± 1.1
363.15 K, 2780 kPa	805 ± 1.2
363.15 K, 3000 kPa	805.5 ± 1.2
363.15 K, 5000 kPa	808.1 ± 1.3
363.15 K, 10000 kPa	814.6 ± 1.5
363.15 K, 15000 kPa	820.5 ± 1.8
363.15 K, 20000 kPa	826 ± 2
363.15 K, 25000 kPa	831.2 ± 2.2
363.15 K, 30000 kPa	836 ± 2.4
363.15 K, 35000 kPa	840.8 ± 2.6
373.15 K, 100 kPa	790.7 ± 1
373.15 K, 1000 kPa	792 ± 1.1
373.15 K, 2000 kPa	793.5 ± 1.2
373.15 K, 2780 kPa	794.7 ± 1.2
373.15 K, 3000 kPa	795 ± 1.2
373.15 K, 5000 kPa	797.9 ± 1.3
373.15 K, 10000 kPa	804.8 ± 1.6
373.15 K, 15000 kPa	810.9 ± 1.8
373.15 K, 20000 kPa	816.7 ± 2.1
373.15 K, 25000 kPa	822.2 ± 2.3
373.15 K, 30000 kPa	827.3 ± 2.5
373.15 K, 35000 kPa	832.3 ± 2.7
383.15 K, 100 kPa	779.9 ± 1.1
383.15 K, 1000 kPa	781.3 ± 1.1
383.15 K, 2000 kPa	783 ± 1.2
383.15 K, 2780 kPa	784.2 ± 1.2
383.15 K, 3000 kPa	784.5 ± 1.2
383.15 K, 5000 kPa	787.6 ± 1.4
383.15 K, 10000 kPa	795 ± 1.6
383.15 K, 15000 kPa	801.5 ± 1.9
383.15 K, 20000 kPa	807.6 ± 2.1
383.15 K, 25000 kPa	813.4 ± 2.4
383.15 K, 30000 kPa	818.9 ± 2.6
383.15 K, 35000 kPa	824 ± 2.8
393.15 K, 100 kPa	769 ± 1.1
393.15 K, 1000 kPa	770.5 ± 1.2
393.15 K, 2000 kPa	772.3 ± 1.2
393.15 K, 2780 kPa	773.6 ± 1.3
393.15 K, 3000 kPa	774.1 ± 1.3
393.15 K, 5000 kPa	777.4 ± 1.4
393.15 K, 10000 kPa	785.1 ± 1.7
393.15 K, 15000 kPa	791.6 ± 2
393.15 K, 20000 kPa	797.7 ± 2.2
393.15 K, 25000 kPa	803.5 ± 2.5
393.15 K, 30000 kPa	809 ± 2.7
393.15 K, 35000 kPa	814 ± 2.9
